Measured values published in US20040044000A1, “Isoquinoline derivatives as matrix metalloproteinase inhibitors” (priority 2002, published 2004).
Read-outs that look alike come from different tables or passages of the source.

Target: T1, MMP-13 catalytic domain (MMP-13CD) (Homo sapiens, UniProt P45452)
T1 construct: use the catalytic domain of the MMP-13 enzyme, namely matrix metalloproteinase-13 catalytic domain (“MMP-13CD”), rather than the corresponding full-length enzyme
Test: Inhibition of MMP-13 catalytic domain (thiopeptolide substrate hydrolysis)
Type: biochemical
Text: The assays measure the amount by which a test compound reduces the hydrolysis of a thiopeptolide substrate catalyzed by a matrix metalloproteinase enzyme. Such assays are described in detail by Ye et al., in Biochemistry, 1992;31(45):11231-11235, which is incorporated herein by reference. One such assay is described below in Biological Method 1.
Some of the particular methods described below use the catalytic domain of the MMP-13 enzyme, namely matrix metalloproteinase-13 catalytic domain (“MMP-13CD”), rather than the corresponding full-length enzyme, MMP-13. It has been shown previously by Ye Qi-Zhuang, Hupe D., and Johnson L. (Current Medicinal Chemistry, 1996;3:407-418) that inhibitor activity against a catalytic domain of an MMP is predictive of the inhibitor activity against the respective full-length MMP enzyme.
Thiopeptolide substrates show virtually no decomposition or hydrolysis at or below neutral pH in the absence of a matrix metalloproteinase enzyme. A typical thiopeptolide substrate commonly utilized for assays is Ac-Pro-Leu-Gly-thioester-Leu-Leu-Gly-OEt. A 100 μL assay mixture will contain 50 mM of N-2-hydroxyethylpiperazine-N′-2-ethanesulfonic acid buffer (“HEPES,” pH 7.0), 10 mM CaCl2, 100 μM thiopeptolide substrate, and 1 mM 5,5′-dithio-bis-(2-nitro-benzoic acid) (DTNB). The thiopeptolide substrate concentration may be varied, for example from 10 to 800 μM to obtain Km and Kcat values. The change in absorbance at 405 nm is monitored on a Thermo Max microplate reader (molecular Devices, Menlo Park, Calif.) at room temperature (22° C.). The calculation of the amount of hydrolysis of the thiopeptolide substrate is based on E412=13600 M^−1 cm^−1 for the DTNB-derived product 3-carboxy-4-nitrothiophenoxide. Assays are carried out with and without matrix metalloproteinase inhibitor compounds, and the amount of hydrolysis is compared for a determination of inhibitory activity of the test compounds.
Test compounds were evaluated at various concentrations in order to determine their respective IC50 values, the micromolar concentration of compound required to cause a 50% inhibition of catalytic activity of the respective enzyme.

[1] = read-out: IC50 with MMP-13 catalytic domain
[2] = Biological Table 1, read-out: MMP-13CD IC50
[3] = Biological Table 2, compounds of Example 66, read-out: MMP-13CD IC50

SMILES	IC50 [3] [µM]	other results
O=C(O)c1ccc(Cn2ccc3ccc(C#CCn4ccnc4)cc3c2=O)cc1 [Example 13, 4-[7-(3-Imidazol-1-ylprop-1-ynyl)-1-oxo-1H-isoquinolin-2-ylmethyl]benzoic Acid]	–	IC50 [1]: 0.0089 µM
O=C(NCc1ccncc1)c1ccc2ccn(CCOc3ccccc3)c(=O)c2c1 [Example 41, 1-oxo-2-(2-phenoxyethyl)-1,2-dihydroisoquinoline-7-carboxylic Acid (pyridin-4-ylmethyl)amide]	–	IC50 [2]: 26 µM
O=c1c2cc(C#CCc3ccccc3)ccc2ccn1CC[S+]([O-])c1ccccc1 (stereo not shown) [Example 66z, 2-(2-Benzenesulfinyl-ethyl)-7-(3-phenyl-prop-1-ynyl)-2H-isoquinolin-1-one]	> 100	–
CCOC(=O)CCCCn1ccc2ccc(C#CCc3ccccc3)cc2c1=O [Example 66s, 5-[1-Oxo-7-(3-phenyl-prop-1-ynyl)-1H-isoquinolin-2-yl]-pentanoic acid ethyl ester]	8.7	–
CCOC(=O)CCn1ccc2ccc(C#CCc3ccccc3)cc2c1=O [Example 66t, 3-[1-Oxo-7-(3-phenyl-prop-1-ynyl)-1H-isoquinolin-2-yl]-propionic acid ethyl ester]	> 100	–
CCOC(=O)CCCCCn1ccc2ccc(C#CCc3ccccc3)cc2c1=O [Example 66v, 6-[1-Oxo-7-(3-phenyl-prop-1-ynyl)-1H-isoquinolin-2-yl]-hexanoic acid ethyl ester]	8.7	–
CCC(=O)Cn1ccc2ccc(C#CCc3ccccc3)cc2c1=O [Example 66ab, 2-(2-Oxo-butyl)-7-(3-phenyl-prop-1-ynyl)-2H-isoquinolin-1-one]	12	–
COc1ccc(CNC(=O)c2ccc3ccn(CCOc4ccccc4)c(=O)c3c2)cc1 [Example 44, 1-oxo-2-(2-phenoxyethyl)-1,2-dihydroisoquinoline-7-carboxylic Acid 4-methoxybenzylamide]	–	IC50 [2]: 7.5 µM
O=C(O)c1ccc(Cn2ccc3ccc(C#CCn4ccnn4)cc3c2=O)cc1 [4-[1-oxo-7-(3-[1,2,3]triazol-1-ylprop-1-ynyl)-1H-isoquinolin-2-ylmethyl]benzoic acid]	–	IC50 (hMMP-13CD, text b731, read-out: IC50 with hMMP-13CD): > 50 µM
COC(=O)CCn1ccc2ccc(C#CCc3ccccc3)cc2c1=O [Example 66k, 3-[1-Oxo-7-(3-phenyl-prop-1-ynyl)-1H-isoquinolin-2-yl]-propionic acid methyl ester]	> 100	–
CCOC(=O)CCCn1ccc2ccc(C#CCc3ccccc3)cc2c1=O [Example 66aa, 4-[1-Oxo-7-(3-phenyl-prop-1-ynyl)-1H-isoquinolin-2-yl]-butyric acid ethyl ester]	12	–
O=C(NCc1ccco1)c1ccc2ccn(Cc3ccc(-c4nn[nH]n4)cc3)c(=O)c2c1 [Example 62, 1-oxo-2-[4-(2H-tetrazol-5-yl)benzyl]-1,2-dihydroisoquinoline-7-carboxylic Acid (furan-2-ylmethyl)amide]	–	IC50 [2]: 12 µM
O=C(NCc1cncnc1)c1ccc2ccn(CCOc3ccccc3)c(=O)c2c1 [Example 46, 1-oxo-2-(2-phenoxyethyl)-1,2-dihydroisoquinoline-7-carboxylic Acid (pyrimidin-5-ylmethyl)-amide]	–	IC50 [2]: > 100 µM
O=c1c2cc(C#CCc3ccccc3)ccc2ccn1CCC1OCCCO1 [Example 66f, 2-(2-1,3-Dioxinan-2-yl-ethyl)-7-(3-phenyl-prop-1-ynyl)-2H-isoquinolin-1-one]	> 30	–
COC(=O)Cn1ccc2ccc(C#CCc3ccccc3)cc2c1=O [Example 66q, [1-Oxo-7-(3-phenyl-prop-1-ynyl)-1H-isoquinolin-2-yl]-acetic acid methyl ester]	22	–
O=c1c2cc(C#CCc3ccccc3)ccc2ccn1CC1OCCO1 [Example 66n, 2-1,3-Dioxolan-2-ylmethyl-7-(3-phenyl-prop-1-ynyl)-2H-isoquinolin-1-one]	24	–

SMILES	IC50 [3] [µM]	other results
CCOC(Cn1ccc2ccc(C#CCc3ccccc3)cc2c1=O)OCC [Example 66r, 2-(2,2-Diethoxy-ethyl)-7-(3-phenyl-prop-1-ynyl)-2H-isoquinolin-1-one]	33	–
CC(=O)OCCCCn1ccc2ccc(C#CCc3ccccc3)cc2c1=O [Example 66l, Acetic acid 4-[1-oxo-7-(3-phenyl-prop-1-ynyl)-1H-isoquinolin-2-yl]-butyl ester]	14	–
O=C(NCCn1cccc1)c1ccc2ccn(Cc3ccc(-c4nn[nH]n4)cc3)c(=O)c2c1 [Example 63, 1-oxo-2-[4-(2H-tetrazol-5-yl)benzyl]-1,2-dihydroisoquinoline-7-carboxylic Acid (2-pyrrol-1-yl-ethyl)amide]	–	IC50 [2]: 49 µM
O=C(NCc1cccnc1)c1ccc2ccn(CCOc3ccccc3)c(=O)c2c1 [Example 42, 1-oxo-2-(2-phenoxyethyl)-1,2-dihydroisoquinoline-7-carboxylic Acid (pyridin-3-ylmethyl)amide]	–	IC50 [2]: 55 µM
COC(=O)CCCCn1ccc2ccc(C#CCc3ccccc3)cc2c1=O [Example 66p, 5-[1-Oxo-7-(3-phenyl-prop-1-ynyl)-1H-isoquinolin-2-yl]-pentanoic acid methyl ester]	9.4	–
NS(=O)(=O)c1ccc(Cn2ccc3ccc(C#CCc4ccccc4)cc3c2=O)cc1 [Example 5, 4-[1-Oxo-7-(3-phenyl-prop-1-ynyl)-1H-isoquinolin-2-ylmethyl]benzenesulfonamide]	–	IC50 [1]: 0.036 µM
N#Cc1ccc(Cn2ccc3ccc(C(=O)NCc4ccncc4)cc3c2=O)cc1 [Example 33, 2-(4-cyanobenzyl)-1-oxo-1,2-dihydro-isoquinoline-7-carboxylic Acid (pyridin-4-ylmethyl)amide]	–	IC50 [2]: 1.3 µM
COc1cccc(CNC(=O)c2ccc3ccn(CCOc4ccccc4)c(=O)c3c2)c1 [Example 45, 1-oxo-2-(2-phenoxyethyl)-1,2-dihydroisoquinoline-7-carboxylic Acid 3-methoxybenzylamide]	–	IC50 [2]: 1.2 µM
O=c1c2cc(C#CCc3ccccc3)ccc2ccn1Cc1ccccc1 [Example 66ag, 2-Benzyl-7-(3-phenyl-prop-1-ynyl)-2H-isoquinolin-1-one]	1.9	–
N#CCCn1ccc2ccc(C#CCc3ccccc3)cc2c1=O [Example 66d, 3-[1-Oxo-7-(3-phenyl-prop-1-ynyl)-1H-isoquinolin-2-yl]-propionitrile]	4.8	–
COC(Cn1ccc2ccc(C#CCc3ccccc3)cc2c1=O)OC [Example 66h, 2-(2,2-Dimethoxy-ethyl)-7-(3-phenyl-prop-1-ynyl)-2H-isoquinolin-1-one]	34	–
CS(=O)(=O)c1ccc(Cn2ccc3ccc(C#CCc4ccccc4)cc3c2=O)cc1 [Example 66o, 2-(4-Methanesulfonyl-benzyl)-7-(3-phenyl-prop-1-ynyl)-2H-isoquinolin-1-one]	95	–
O=C(O)c1ccc(Cn2ccc3ccc(C(=O)NCc4cncnc4)cc3c2=O)cc1 [Example 28, 4-[1-oxo-7-[(pyrimidin-5-ylmethyl)carbamoyl]-1H-isoquinolin-2-ylmethyl]benzoic Acid]	–	IC50 [2]: 1.8 µM
N#CCCCCCn1ccc2ccc(C#CCc3ccccc3)cc2c1=O [Example 66af, 6-[1-Oxo-7-(3-phenyl-prop-1-ynyl)-1H-isoquinolin-2-yl]-hexanenitrile]	8.6	–
O=c1c2cc(C#CCc3ccccc3)ccc2ccn1CC1CCCO1 (stereo not shown) [Example 66i, 7-(3-Phenyl-prop-1-ynyl)-2-(tetrahydro-furan-2-ylmethyl)-2H-isoquinolin-1-one]	13	–
